Experimental data taken from patent US9340507B2, “Substituted 4-pyridones and their use as inhibitors of neutrophil elastase activity” (Boehringer Ingelheim International GmbH, priority 2012, dated 2016).

What follows are compounds tested against Human neutrophil elastase (Homo sapiens (Human), UniProt P08246) (assay: Human Neutrophil Elastase Assay). Settings: substrate MeOSuc-Ala-Ala-Pro-Val-AMC 250 μM, pH 7.5, fluorescence.
Assay type: biochemical
Procedure: Human Neutrophil Elastase Assay
All other materials were of the highest grade commercially available.
The following buffers were used: Compound buffer: 100 mM Tris, 500 mM NaCl, adjusted to pH 7.5; Assay buffer: 100 mM Tris, 500 mM NaCl, adjusted to pH 7.5, containing 0.01% BSA.
Assay conditions: Test compounds were prediluted in DMSO and subsequently in compound buffer (5% DMSO final). […] After inactivation of the enzyme, fluorescence intensities were measured at 380 nm excitation and 460 nm emission wavelengths.
Each plate contains wells with a high value control (DMSO+enzyme+substrate) and wells with a low value control (DMSO+inactivated enzyme+substrate). IC50 values were estimated using a sigmoidal concentration response curve with variable slope. Means of low values were taken as 0%, means of high values as 100%. IC50 values of selected compound in the Neutrophil Elastase assay: […]

Chain of Human neutrophil elastase (P08246 30-267): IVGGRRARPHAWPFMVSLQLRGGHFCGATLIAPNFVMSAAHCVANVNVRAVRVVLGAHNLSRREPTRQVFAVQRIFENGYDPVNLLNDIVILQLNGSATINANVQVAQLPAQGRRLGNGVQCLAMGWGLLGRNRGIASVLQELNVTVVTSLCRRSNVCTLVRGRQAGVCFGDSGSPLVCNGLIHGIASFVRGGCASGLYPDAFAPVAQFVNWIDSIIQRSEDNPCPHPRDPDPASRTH

| Compound | IC50 |
| --- | --- |
| Cc1c(-c2cccc(C(F)F)c2)c(=O)c(C(=O)NCc2ccc(C#N)cc2)cn1C(C)C [Example 4.5] | 51 nM |
| Cc1c(-c2cccc(C(F)F)c2)c(=O)c(C(=O)NCc2cn3ccccc3n2)cn1C(C)C [Example 4.6] | 28 nM |
| Cc1c(-c2cccc(C(F)F)c2)c(=O)c(C(=O)NCc2ccc3c(cnn3C)c2)cn1C(C)C [Example 4.7] | 45 nM |
| Cc1c(-c2cccc(C(F)F)c2)c(=O)c(C(=O)NCc2ccc([S+](C)[O-])cc2)cn1C(C)C (centres unmarked) [Example 4.8] | 10 nM |
| Cc1c(-c2cccc(C(F)F)c2)c(=O)c(C(=O)NCc2cccc(S(C)(=O)=O)c2)cn1C(C)C [Example 4.9] | 63 nM |
| Cc1c(-c2cccc(C(F)F)c2)c(=O)c(C(=O)NCc2ccc(S(N)(=O)=O)cc2)cn1C(C)C [Example 4.10] | 42 nM |
| Cc1c(-c2cccc(C(F)F)c2)c(=O)c(C(=O)NCc2ccc(Cn3ccnc3)cc2)cn1C(C)C [Example 4.11] | 18 nM |
| Cc1c(-c2cccc(C(F)F)c2)c(=O)c(C(=O)NCc2ccc(N3CCNC3=O)cc2)cn1C(C)C [Example 4.12] | 69 nM |
| Cc1c(-c2cccc(C(F)F)c2)c(=O)c(C(=O)NCc2ccc(CN3CCCC3=O)cc2)cn1C(C)C [Example 4.13] | 20 nM |
| Cc1c(-c2ccnc(C(F)(F)F)c2)c(=O)c(C(=O)NCc2ccc(S(C)(=O)=O)cc2)cn1C(C)C [Example 5.1, 1-Isopropyl-2-methyl-4-oxo-2′-trifluoromethyl-1,4-dihydro-[3,4]bipyridinyl-5-carboxylic acid 4-methanesulfonyl-benzylamide] | 72 nM |
| Cc1c(-c2ccc(F)c(C(F)(F)F)c2)c(=O)c(C(=O)NCc2ccc(S(C)(=O)=O)cc2)cn1C(C)C [Example 5.2] | 19 nM |
| Cc1c(-c2cc(Cl)cc(C(F)(F)F)c2)c(=O)c(C(=O)NCc2ccc(S(C)(=O)=O)cc2)cn1C(C)C [Example 5.3] | 48 nM |
| Cc1c(-c2ccc(F)c(C(F)F)c2)c(=O)c(C(=O)NCc2ccc(S(C)(=O)=O)cc2)cn1C(C)C [Example 5.4] | 61 nM |
| Cc1c(-c2cncc(C(F)(F)F)c2)c(=O)c(C(=O)NCc2ccc(S(C)(=O)=O)cc2)cn1C(C)C [Example 5.5] | 91 nM |
| Cc1c(-c2cccc(C(F)(F)F)c2)c(=O)c(C(=O)NCc2ccc(S(C)(=O)=O)cc2)cn1C1CC1 [Example 6, 1-Cyclopropyl-6-methyl-4-oxo-5-(3-trifluoromethyl-phenyl)-1,4-dihydro-pyridine-3-carboxylic acid 4-methanesulfonyl-benzylamide] | 30 nM |
| Cc1c(-c2cccc(C(F)(F)F)c2)c(=O)c(C(=O)NCc2ccc(S(C)(=O)=O)cc2)cn1C1CCC1 [Example 7, 1-Cyclobutyl-6-methyl-4-oxo-5-(3-trifluoromethyl-phenyl)-1,4-dihydro-pyridine-3-carboxylic acid 4-methanesulfonyl-benzylamide] | 27 nM |
| Cc1nnc(CNC(=O)c2cn(C3CCCC3)c(C)c(-c3cccc(C(F)(F)F)c3)c2=O)o1 [Example 8.1, 1-Cyclopentyl-6-methyl-4-oxo-5-(3-trifluoromethyl-phenyl)-1,4-dihydro-pyridine-3-carboxylic acid (5-methyl-[1,3,4]oxadiazol-2-ylmethyl)-amide] | 43 nM |
| Cc1nnc(CNC(=O)c2cn(C3CCCC3)c(C)c(-c3cccc(C(F)F)c3)c2=O)o1 [Example 9.1, 1-Cyclopentyl-5-(3-difluoromethyl-phenyl)-6-methyl-4-oxo-1,4-dihydro-pyridine-3-carboxylic acid (5-methyl-[1,3,4]oxadiazol-2-ylmethyl)-amide] | 28 nM |

| Compound | IC50 |
| --- | --- |
| Cc1c(-c2cccc(C(F)F)c2)c(=O)c(C(=O)NCc2ccc(S(C)(=O)=O)cc2)cn1C1CCCC1 [Example 9.2, 1-Cyclopentyl-5-(3-difluoromethyl-phenyl)-6-methyl-4-oxo-1,4-dihydro-pyridine-3-carboxylic acid 4-methanesulfonyl-benzylamide] | 18 nM |
| CCn1cc(C(=O)NCc2ccc(S(C)(=O)=O)cc2)c(=O)c(-c2cccc(C(F)F)c2)c1C [Example 10, 5-(3-Difluoromethyl-phenyl)-1-ethyl-6-methyl-4-oxo-1,4-dihydro-pyridine-3-carboxylic acid 4-methanesulfonyl-benzylamide] | 29 nM |
| CC[C@@H](C)n1cc(C(=O)NCc2ccc(S(C)(=O)=O)cc2)c(=O)c(-c2cccc(C(F)F)c2)c1C [Example 11.1, (R)-1-sec-Butyl-5-(3-difluoromethyl-phenyl)-6-methyl-4-oxo-1,4-dihydro-pyridine-3-carboxylic acid 4-methanesulfonyl-benzylamide] | 8 nM |
| CC[C@@H](C)n1cc(C(=O)NCc2ccc(S(C)(=O)=O)cc2)c(=O)c(-c2ccnc(C(F)(F)F)c2)c1C [Example 11.2, (R)-1-sec-Butyl-2-methyl-4-oxo-2′-trifluoromethyl-1,4-dihydro-[3,4]bipyridinyl-5-carboxylic acid 4-methanesulfonyl-benzylamide] | 35 nM |
| CC[C@H](C)n1cc(C(=O)NCc2ccc(S(C)(=O)=O)cc2)c(=O)c(-c2cccc(C(F)(F)F)c2)c1C [Example 12.1, (S)-1-sec-Butyl-6-methyl-4-oxo-5-(3-trifluoromethyl-phenyl)-1,4-dihydro-pyridine-3-carboxylic acid 4-methanesulfonyl-benzylamide] | 9 nM |
| CC[C@H](C)n1cc(C(=O)NCc2ccc(S(C)(=O)=O)cc2)c(=O)c(-c2cccc(C(F)F)c2)c1C [Example 12.2, (S)-1-sec-Butyl-5-(3-difluoromethyl-phenyl)-6-methyl-4-oxo-1,4-dihydro-pyridine-3-carboxylic acid 4-methanesulfonyl-benzylamide] | 12 nM |
| CC[C@H](C)n1cc(C(=O)NCc2ccc(S(C)(=O)=O)cc2)c(=O)c(-c2ccnc(C(F)(F)F)c2)c1C [Example 12.3, (S)-1-sec-Butyl-2-methyl-4-oxo-2′-trifluoromethyl-1,4-dihydro-[3,4]bipyridinyl-5-carboxylic acid 4-methanesulfonyl-benzylamide] | 54 nM |
| CCC(CC)n1cc(C(=O)NCc2ccc(S(C)(=O)=O)cc2)c(=O)c(-c2cccc(C(F)F)c2)c1C [Example 15.2, 5-(3-Difluoromethyl-phenyl)-1-(1-ethyl-propyl)-6-methyl-4-oxo-1,4-dihydro-pyridine-3-carboxylic acid 4-methanesulfonyl-benzylamide] | 8 nM |
| CCC(CC)n1cc(C(=O)NCc2ccc(S(C)(=O)=O)cc2)c(=O)c(-c2ccnc(C(F)(F)F)c2)c1C [Example 15.3, 1-(1-Ethyl-propyl)-2-methyl-4-oxo-2′-trifluoromethyl-1,4-dihydro-[3,4]bipyridinyl-5-carboxylic acid 4-methanesulfonyl-benzylamide] | 24 nM |
| COCCn1cc(C(=O)NCc2ccc(S(C)(=O)=O)c[n+]2[O-])c(=O)c(-c2cccc(C(F)(F)F)c2)c1C [Example 16, 1-(2-Methoxy-ethyl)-6-methyl-4-oxo-5-(3-trifluoromethyl-phenyl)-1,4-dihydro-pyridine-3-carboxylic acid (5-methanesulfonyl-1-oxy-pyridin-2-ylmethyl)-amide] | 63 nM |
| Cc1c(-c2cccc(C(F)F)c2)c(=O)c(C(=O)NCc2ccc(S(C)(=O)=O)cn2)cn1C(C)C [Example 17.2, 5-(3-Difluoromethyl-phenyl)-1-isopropyl-6-methyl-4-oxo-1,4-dihydro-pyridine-3-carboxylic acid (5-methanesulfonyl-pyridin-2-ylmethyl)-amide] | 15 nM |
| Cc1c(-c2ccnc(C(F)(F)F)c2)c(=O)c(C(=O)NCc2ccc(S(C)(=O)=O)cn2)cn1C(C)C [Example 17.3, 1-Isopropyl-2-methyl-4-oxo-2′-trifluoromethyl-1,4-dihydro-[3,4]bipyridinyl-5-carboxylic acid (5-methanesulfonyl-pyridin-2-ylmethyl)-amide] | 77 nM |
| Cc1c(-c2cccc(C(F)(F)F)c2)c(=O)c(C(=O)NCc2ccc(S(C)(=O)=O)cn2)cn1C1CCC1 [Example 18.1, 1-Cyclobutyl-6-methyl-4-oxo-5-(3-trifluoromethyl-phenyl)-1,4-dihydro-pyridine-3-carboxylic acid (5-methanesulfonyl-pyridin-2-ylmethyl)-amide] | 32 nM |
| Cc1c(-c2cccc(C(F)F)c2)c(=O)c(C(=O)NCc2ccc(S(C)(=O)=O)cn2)cn1C1CCC1 [Example 18.2, 1-Cyclobutyl-5-(3-difluoromethyl-phenyl)-6-methyl-4-oxo-1,4-dihydro-pyridine-3-carboxylic acid (5-methanesulfonyl-pyridin-2-ylmethyl)-amide] | 35 nM |
| CC[C@@H](C)n1cc(C(=O)NCc2ccc(S(C)(=O)=O)cn2)c(=O)c(-c2cccc(C(F)F)c2)c1C [Example 19.2, (R)-1-sec-Butyl-5-(3-difluoromethyl-phenyl)-6-methyl-4-oxo-1,4-dihydro-pyridine-3-carboxylic acid (5-methanesulfonyl-pyridin-2-ylmethyl)-amide] | 10 nM |
| CC[C@@H](C)n1cc(C(=O)NCc2ccc(S(C)(=O)=O)cn2)c(=O)c(-c2ccnc(C(F)(F)F)c2)c1C [Example 19.3, (R)-1-sec-Butyl-2-methyl-4-oxo-2′-trifluoromethyl-1,4-dihydro-[3,4′]bipyridinyl-5-carboxylic acid (5-methanesulfonyl-pyridin-2-ylmethyl)-amide] | 40 nM |
| CC[C@H](C)n1cc(C(=O)NCc2ccc(S(C)(=O)=O)cn2)c(=O)c(-c2cccc(C(F)F)c2)c1C [Example 20.2, (S)-1-sec-Butyl-5-(3-difluoromethyl-phenyl)-6-methyl-4-oxo-1,4-dihydro-pyridine-3-carboxylic acid (5-methanesulfonyl-pyridin-2-ylmethyl)-amide] | 11 nM |
